≈ marks a conversion by molar mass, not a printed value. Square brackets hold non-standard residues; d marks the D form. Ends that are not written are not given here. Peptide text beside a SMILES is read from it.
Columns and labels:
[1] = test system: Listeria ivanovii (Li4pVS2); test: MIC, liquid growth inhibition assay of free temporins in solution; format: cell-based; details: free peptide in solution; BHI broth, 2 × 10^6 CFU/mL, 2-fold serial dilutions, overnight incubation, OD read-out; lowest concentration that completely inhibits growth; triplicate
Description: (§1) Non-pathogenic bacteria Listeria ivanovii Li4pVS2 (Courtesy of Prof. J.-M. Berjeaud, Poitiers University, Poitiers, France) were used to investigate the antibacterial activity of the modified surfaces. Bacterial suspensions were prepared from frozen cultures incubated overnight (37 °C under agitation at 250 rpm) in brain heart infusion (BHI) broth (BD Difco, Franklin Lakes, NJ, USA). After centrifugation at 10,000× g for 5 min and elimination of the liquid phase (supernatant) the bacteria were redisposed in NaCl 0.9% solution up to a concentration of to 2 × 10^6 colony forming unity (CFU) per mL, verified by measuring the OD620nm = 0.02.
(§2) MIC values of temporin analogs were determined using a liquid growth inhibition assay. An exponential-phase bacterial culture of Listeria ivanovii was diluted in BHI broth to an OD of 0.02 (2 × 10^6 CFU/mL). A volume of 100 μL of this bacterial suspension was mixed with 100 μL of 2-fold serial aqueous dilutions of each temporin (final concentrations from 0.78 to 100 µM). The bacterial growth was monitored by measuring the OD change during overnight incubation. MIC and MBC tests were carried out in triplicate with positive (0.7% formaldehyde) and negative (saline NaCl 0.9% solution) controls. […] The bacterial suspension corresponding to the MIC well and 4 wells above MIC were collected and deposited on agar plate in order to determine the minimal bactericidal concentration (MBC). The MBC is expressed as the lowest concentration for which a decrease of at least 99.99% is observed on agar plates after overnight incubation.

[2] = test system: Listeria ivanovii (Li4pVS2); test: MBC, plating of MIC wells on agar; format: cell-based; details: free peptide in solution; MIC well and 4 wells above plated on agar, overnight; lowest concentration with at least 99.99% decrease; triplicate
Description: as §1, §2

Compound `CC[C@@H](C)[C@@H](NC(=O)CNC(=O)[C@@H](CCCCN)NC(=O)[C@@H](CC(C)C)NC(=O)[C@H](N)Cc1ccccc1)C(=O)N[C@@H](C(=O)NCC(=O)N[C@H](CCSC)C(=O)N[C@H](CC(C)C)C(=O)NCC(=O)N[C@H](CCCCN)C(=O)N[C@H](CC(C)C)C(=O)N[C@H](Cc1ccccc1)C(N)=O)C(C)C` [D-[K^3]SHa, D-[K^3]temporin-SHa] (H-[dF][dL][dK]G[dI][dV]G[dM][dL]G[dK][dL][dF]-NH2; N-terminus assumed) has an MIC [1] of 1.56 µM (≈ 2.22 µg/mL) and an MBC [2] of 3.12 µM (≈ 4.44 µg/mL).
With “FAKGIAGMAGKLF [[A^2,6,9, K^3]SHa-COOH, [A^2,6,9, K^3]temporin-SHa-COOH]” the MBC [2] was 256 µM.
For “FAKGIAGMAGKLF-NH2 [[A^2,6,9, K^3]SHa, [A^2,6,9, K^3]temporin-SHa]”, the MBC [2] was >200 µM.
“FASGIAGMAGKLF-NH2 [[A^2,6,9]SHa, [A^2,6,9]temporin-SHa]” was tested, and the MBC [2] was >200 µM.
In the case of “FLKGIVGMLGKLF [[K^3]SHa-COOH, [K^3]temporin-SHa-COOH]”, the MIC [1] is reported as 64 µM and the MBC [2] is reported as 128 µM.
“FLKGIVGMLGKLF-NH2 [[K^3]SHa, [K^3]temporin-SHa]” was tested, and the MIC [1] was 1.56 µM and the MBC [2] was 3.12 µM.
Compound “FLSGIVGMLGKLF-NH2 [SHa, Temporin-SHa, reference compound]” has an MIC [1] of 6 µM and an MBC [2] of 6 µM.
